Measurements: US11440880B2, “Thalidomide analogs and methods of use” (The USA, as represented by the Secretary, Department of …, priority 2015, dated 2022)

Key:
[1] = system: WT zebrafish embryos; test: WT zebrafish embryo development / teratogenicity; assay type: in vivo, zebrafish (Danio rerio); settings: in words; at concentrations active in fli1:EGFP or mpo:GFP assays
From the text: To determine the effects of the candidate compounds on embryonic development, two in vivo model systems (developing zebrafish and chicken embryos) were utilized.
Malformations in the development of the zebrafish embryo were noted, including inhibition of eye, otic vesicle and fin development (FIGS. 7A-7F). […] Embryos were screened at concentrations previously determined, in this study, to be anti-angiogenic or anti-inflammatory in the fli1:EGFP and mpo:GFP assays respectively.
Concentrations used in the WT zebrafish and chicken embryo assays to assess for teratogenesis, were equal to or higher than those utilized in the fil1:EGFP and mpo:GFP zebrafish assays

[2] = system: rat aortic rings (microvessel outgrowth); test: Rat aortic ring assay of angiogenesis; assay type: cell-based, Sprague Dawley rats; settings: 50 μM, 5 days
Method: Matrigel® matrix (BD Biosciences) was defrosted overnight on ice. The wells of a 24 well plate were coated with 300 μL of the gel using frozen pipette tips. The gel was left to set at room temperature. When required, six week old male Sprague Dawley rats were euthanized by CO2 and decapitation. The blood was drained from the tissue and the descending aorta dissected. The aorta was cleaned in EBM media, the over lying fascia removed, and the tissue was sliced into 1-mm sections using a sterile scalpel and tweezers. The sections were rinsed in clean EBM then placed onto the coagulated gel. Another 300 μL of Matrigel® matrix was pipetted onto the ring and left to set for 30 minutes. EGM™-II endothelial growth medium (500 μL) was added to each well. The rings were incubated overnight at 37° C. The next day the media was removed and replaced with EBM containing compounds (50 μM) or media. TNP-470 ((Chloracetyl) carbamic acid (3R,4S,5S,6R)-5-methoxy-4-[(2R,3R)-2-methyl-3-(3-methyl-2-butenyl)oxiranyl]-1-oxaspiro[2.5]oct-6-yl ester) was used as a positive control. The rings were incubated in the compounds for 5 days. On day 5 the rings were imaged using an EVOS™ scope. The vessel outgrowth was quantified by binary conversion in Image J open-source image processing software and average outgrowth calculated (FIG. 9).

`Nc1cccc2c1CN(C13CC4CC(CC(C4)C1)C3)C2=O` [Compound 77, 2,3-Dihydro-4-amino-2-(tricyclo[3.3.1.1^3,7]dec-1-yl)-1H-isoindol-1-one] was tested. Which “effect on development / mortality of zebrafish embryos” value [1] did it give?
The value was “no apparent effect on the development of the zebrafish embryo”.

`O=C1c2ccccc2CN1C12CC3CC(CC(O)(C3)C1)C2` [Compound 86, 2,3-Dihydro-2-(tricyclo[3.3.1.1^3,7]dec-1-hydroxy-3-yl)-1H-isoindol-1-one] was tested. Which microvessel outgrowth [2] did it give?
Its microvessel outgrowth is 17.3%.
